# In PubChem BioAssay AID192 (DTP/NCI, 2004):
# Toxic doses and inconclusive results are not listed.
# Test system: BDF1 mice, B16 melanoma ip, median survival T/C
# Experiment: NCI In Vivo Anticancer Drug Screen. Data for tumor model B16 Melanoma (intraperitoneal) in B6D2F1 (BDF1) mice
# Conditions: endpoint: median survival time, higher = longer survival
# How it was run: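 Each result divides a survival or tumor-size measurement in the compound-treated group by the same measurement in the vehicle group.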
# [1] = dose: 12.5 mg/kg/injection, schedule: Q01DX009 (ip), vehicle: saline with Tween-80
# [2] = dose: 25.0 mg/kg/injection, schedule: Q01DX009 (ip), vehicle: saline with Tween-80
# [3] = dose: 50.0 mg/kg/injection, schedule: Q01DX009 (ip), vehicle: saline with Tween-80
# [4] = dose: 200.0 mg/kg/injection, schedule: Q01DX009 (ip), vehicle: Klucel (hydroxypropylcellulose) (HPC)
# [5] = dose: 25.0 mg/kg/injection, schedule: Q01DX009 (ip), vehicle: saline
# [6] = dose: 50.0 mg/kg/injection, schedule: Q01DX009 (ip), vehicle: saline
# [7] = dose: 25.0 mg/kg/injection, schedule: Q01DX009 (ip), vehicle: Klucel (hydroxypropylcellulose) (HPC)
# [8] = dose: 50.0 mg/kg/injection, schedule: Q01DX009 (ip), vehicle: Klucel (hydroxypropylcellulose) (HPC)
# [9] = dose: 100.0 mg/kg/injection, schedule: Q01DX009 (ip), vehicle: Klucel (hydroxypropylcellulose) (HPC)
compound,measurement,setting,value
FC(F)(F)c1nc2nc(Cl)c(Cl)nc2[nH]1,T/C,[1],116 % of control
same,T/C,[2],114 % of control
same,T/C,[3],98 % of control
O=C1CN=C(c2ccccc2Cl)c2cc(Cl)ccc2N1,T/C,"dose: 0.01 mg/kg/injection, schedule: Q01DX009 (ip), vehicle: Klucel (hydroxypropylcellulose) (HPC)",100 % of control
same,T/C,"dose: 0.02 mg/kg/injection, schedule: Q01DX009 (ip), vehicle: Klucel (hydroxypropylcellulose) (HPC)",86 % of control
same,T/C,"dose: 0.04 mg/kg/injection, schedule: Q01DX009 (ip), vehicle: Klucel (hydroxypropylcellulose) (HPC)",86 % of control
same,T/C,"dose: 0.09 mg/kg/injection, schedule: Q01DX009 (ip), vehicle: Klucel (hydroxypropylcellulose) (HPC)",86 % of control
same,T/C,"dose: 0.39 mg/kg/injection, schedule: Q01DX009 (ip), vehicle: Klucel (hydroxypropylcellulose) (HPC)",91 % of control
same,T/C,"dose: 0.78 mg/kg/injection, schedule: Q01DX009 (ip), vehicle: Klucel (hydroxypropylcellulose) (HPC)",88 % of control
same,T/C,"dose: 1.56 mg/kg/injection, schedule: Q01DX009 (ip), vehicle: Klucel (hydroxypropylcellulose) (HPC)",86 % of control
same,T/C,"dose: 3.12 mg/kg/injection, schedule: Q01DX009 (ip), vehicle: Klucel (hydroxypropylcellulose) (HPC)",89 % of control
same,T/C,[4],90 % of control
same,T/C,"dose: 0.6 micrograms/kg/injection, schedule: Q01DX009 (ip), vehicle: Klucel (hydroxypropylcellulose) (HPC)",111 % of control
same,T/C,"dose: 1.2 micrograms/kg/injection, schedule: Q01DX009 (ip), vehicle: Klucel (hydroxypropylcellulose) (HPC)",104 % of control
same,T/C,"dose: 2.5 micrograms/kg/injection, schedule: Q01DX009 (ip), vehicle: Klucel (hydroxypropylcellulose) (HPC)",105 % of control
same,T/C,"dose: 5.0 micrograms/kg/injection, schedule: Q01DX009 (ip), vehicle: Klucel (hydroxypropylcellulose) (HPC)",95 % of control
same,T/C,"dose: 10.0 micrograms/kg/injection, schedule: Q01DX009 (ip), vehicle: Klucel (hydroxypropylcellulose) (HPC)",112 % of control
Cc1cc2nc3ccc(=[N+](C)C)cc-3sc2cc1N,T/C,"dose: 3.12 mg/kg/injection, schedule: Q01DX009 (ip), vehicle: saline",116 % of control
same,T/C,"dose: 12.5 mg/kg/injection, schedule: Q01DX009 (ip), vehicle: saline",116 % of control
same,T/C,[5],107 % of control
same,T/C,[6],97 % of control
O=C1CC(NC(=O)OCc2ccccc2)C(=O)O1 (stereo not drawn),T/C,"dose: 100.0 mg/kg/injection, schedule: Q01DX009 (ip), vehicle: alcohol",111 % of control
same,T/C,"dose: 200.0 mg/kg/injection, schedule: Q01DX009 (ip), vehicle: alcohol",94 % of control
COc1ccccc1N1CCN(CCCC(=O)c2ccc(F)cc2)CC1,T/C,"dose: 0.09 mg/kg/injection, schedule: Q04DX003 (ip), vehicle: Klucel (hydroxypropylcellulose) (HPC)",93 % of control
same,T/C,"dose: 0.19 mg/kg/injection, schedule: Q04DX003 (ip), vehicle: Klucel (hydroxypropylcellulose) (HPC)",91 % of control
same,T/C,"dose: 0.39 mg/kg/injection, schedule: Q04DX003 (ip), vehicle: Klucel (hydroxypropylcellulose) (HPC)",96 % of control
same,T/C,"dose: 0.78 mg/kg/injection, schedule: Q04DX003 (ip), vehicle: Klucel (hydroxypropylcellulose) (HPC)",87 % of control
same,T/C,"dose: 1.56 mg/kg/injection, schedule: Q04DX003 (ip), vehicle: Klucel (hydroxypropylcellulose) (HPC)",90 % of control
same,T/C,"dose: 6.25 mg/kg/injection, schedule: Q01DX009 (ip), vehicle: Klucel (hydroxypropylcellulose) (HPC)",92 % of control
same,T/C,"dose: 12.5 mg/kg/injection, schedule: Q01DX009 (ip), vehicle: Klucel (hydroxypropylcellulose) (HPC)",92 % of control
same,T/C,[7],100 % of control
same,T/C,[8],105 % of control
O=C(O)c1ccc2c3c(ccc(C(=O)O)c13)CC2,T/C,[7],92 % of control
same,T/C,[8],91 % of control
CC(C)Nc1ncnc2[nH]ncc12,T/C,"dose: 1.0 mg/kg/injection, schedule: Q01DX009 (ip), vehicle: Klucel (hydroxypropylcellulose) (HPC)",96 % of control
same,T/C,"dose: 2.0 mg/kg/injection, schedule: Q01DX009 (ip), vehicle: Klucel (hydroxypropylcellulose) (HPC)",105 % of control
same,T/C,"dose: 4.0 mg/kg/injection, schedule: Q01DX009 (ip), vehicle: Klucel (hydroxypropylcellulose) (HPC)",94 % of control
same,T/C,"dose: 8.0 mg/kg/injection, schedule: Q01DX009 (ip), vehicle: Klucel (hydroxypropylcellulose) (HPC)",102 % of control
Oc1cc2c3c(c1)c1cc4c(cc1c[n+]3CC2)OCO4,T/C,"dose: 1.56 mg/kg/injection, schedule: Q01DX009 (ip), vehicle: distilled water + Tween-80",117 % of control
same,T/C,"dose: 3.12 mg/kg/injection, schedule: Q01DX009 (ip), vehicle: water",115 % of control
same,T/C,"dose: 3.13 mg/kg/injection, schedule: Q01DX009 (ip), vehicle: distilled water + Tween-80",113 % of control
same,T/C,"dose: 6.25 mg/kg/injection, schedule: Q01DX009 (ip), vehicle: water",118 % of control
same,T/C,"dose: 25.0 mg/kg/injection, schedule: Q01DX009 (ip), vehicle: distilled water + Tween-80",119 % of control
same,T/C,"dose: 50.0 mg/kg/injection, schedule: Q01DX009 (ip), vehicle: water",124 % of control
Cc1cc([NH-])c([NH-])cc1C.[Cl][Pt+2][Cl],T/C,"dose: 1.25 mg/kg/injection, schedule: Q01DX009 (ip), vehicle: saline with Tween-80",108 % of control
same,T/C,"dose: 2.5 mg/kg/injection, schedule: Q01DX009 (ip), vehicle: saline with Tween-80",123 % of control
same,T/C,"dose: 10.0 mg/kg/injection, schedule: Q01DX009 (ip), vehicle: saline with Tween-80",161 % of control
C[C@@H]1C[C@@]2(O[C@@H]2C)C(=O)O[C@@H]2CCN3CC=C(COC(=O)[C@]1(C)O)[C@H]23,T/C,"dose: 10.0 mg/kg/injection, schedule: Q01DX009 (ip), vehicle: saline",102 % of control
same,T/C,"dose: 20.0 mg/kg/injection, schedule: Q01DX009 (ip), vehicle: saline",102 % of control
same,T/C,"dose: 40.0 mg/kg/injection, schedule: Q01DX009 (ip), vehicle: saline",104 % of control
COc1ccc(I)c([N+](=O)[O-])c1,T/C,[8],93 % of control
same,T/C,[9],93 % of control
same,T/C,[4],87 % of control
OCc1cc2c([nH]c3ccccc32)c(C(O)CO)n1 (stereo not drawn),T/C,"dose: 20.0 mg/kg/injection, schedule: Q01DX009 (ip), vehicle: saline with Tween-80",102 % of control
same,T/C,"dose: 40.0 mg/kg/injection, schedule: Q01DX009 (ip), vehicle: saline with Tween-80",99 % of control
same,T/C,"dose: 80.0 mg/kg/injection, schedule: Q01DX009 (ip), vehicle: saline with Tween-80",97 % of control
Nc1nc(Cl)nc2c1ncn2C1OC(CO)C(O)C1O (stereo not drawn),T/C,[5],95 % of control
same,T/C,[6],93 % of control
same,T/C,"dose: 100.0 mg/kg/injection, schedule: Q01DX009 (ip), vehicle: saline",95 % of control
COC(=O)[C@@]12OC[C@]34[C@H]([C@@H](O)[C@@H]1O)[C@@]1(C)C=C(OC5OC(CO)C(O)C(O)C5O)C(=O)C(C)[C@@H]1C[C@H]3OC(=O)[C@H](OC(=O)C=C(C)C)[C@@H]24 (stereo partly drawn),T/C,"dose: 0.25 mg/kg/injection, schedule: Q01DX009 (ip), vehicle: saline + alcohol",108 % of control
same,T/C,"dose: 0.5 mg/kg/injection, schedule: Q01DX009 (ip), vehicle: saline + alcohol",108 % of control
same,T/C,"dose: 1.0 mg/kg/injection, schedule: Q01DX009 (ip), vehicle: saline + alcohol",108 % of control
same,T/C,"dose: 2.0 mg/kg/injection, schedule: Q01DX009 (ip), vehicle: saline + alcohol",105 % of control
same,T/C,"dose: 4.0 mg/kg/injection, schedule: Q01DX009 (ip), vehicle: saline + alcohol",113 % of control
same,T/C,"dose: 8.0 mg/kg/injection, schedule: Q01DX009 (ip), vehicle: saline + alcohol",103 % of control
Cc1cccc(NC(=O)Nc2ccccc2Cl)c1C,T/C,[7],101 % of control
same,T/C,[8],101 % of control
same,T/C,[9],101 % of control
O=C(c1ccncc1)c1c(Cc2ccccc2)ccc2ccccc12,T/C,[3],100 % of control
same,T/C,"dose: 100.0 mg/kg/injection, schedule: Q01DX009 (ip), vehicle: saline with Tween-80",99 % of control
same,T/C,"dose: 200.0 mg/kg/injection, schedule: Q01DX009 (ip), vehicle: saline with Tween-80",95 % of control
same,T/C,"dose: 400.0 mg/kg/injection, schedule: Q01DX009 (ip), vehicle: saline with Tween-80",95 % of control
O=C(Nc1cc(Cl)ccc1Cl)c1ccc(Cl)cc1Cl,T/C,"dose: 6.25 mg/kg/injection, schedule: Q01DX009 (ip), vehicle: saline with Tween-80",97 % of control
same,T/C,"dose: 6.25 mg/kg/injection, schedule: Q04DX003 (ip), vehicle: saline with Tween-80",92 % of control
same,T/C,[1],93 % of control
same,T/C,"dose: 12.5 mg/kg/injection, schedule: Q04DX003 (ip), vehicle: saline with Tween-80",96 % of control
same,T/C,[2],100 % of control
same,T/C,"dose: 25.0 mg/kg/injection, schedule: Q04DX003 (ip), vehicle: saline with Tween-80",88 % of control
